Results reported in patent US9327023B2, “HER2 targeting agent treatment in non-HER2-amplified cancers having HER2 expressing cancer stem cells” (The Regents of the University of Michigan, priority 2011, dated 2016).
“Also recorded” adds a separate entry of the source.

Assays:
[1] = test system: IL6, IL8, and CCL5; test: cytokine secretion of Sum159-HER2+PTEN- cells, ELISA; format: cell-based, human; conditions: for secretion of all three cytokines (IL6, IL8, CCL5) / reduced the levels of these cytokines: Sum159-HER2+PTEN- cells, 1 mM Stat3 Inhibitor VII; for secretion of all three cytokines (IL6, IL8, CCL5): 5 mM Bay11-7082, 5 mM perfosine; for reduced the levels of these cytokines: 5 mM perfosine
Protocol: The NF-kB transcription factor is involved in the transcription of a number of cytokine genes including IL6, IL8, and CCL5 (Yu et al., 2010; herein incorporated by reference in its entirety). Furthermore, IL6-activated NF-kB signaling is mediated by Stat3 and Akt signaling pathways (Iliopoulos et al., 2009; herein incorporated by reference in its entirety). […] The effect of recombinant cytokines or cytokine-blocking antibodies on cytokine production was determined.

[2] = test system: HER2 amplified BT474 tumor xenografts; test: BT474 xenograft in fat pad, early and late treatment; format: in vivo, NOD/SCID mice; conditions: for growth of established BT474 tumors: late treatment, trastuzumab 4 mg/kg IP twice a week, docetaxel 10 mg/kg IP once a week
Protocol: (§1) Five-week old NOD/SCID mice from breeding colony, University of Michigan, Harland and Jackson Laboratory were used throughout the experiments. All experiments involving live mice were conducted in accordance with standard operating procedures approved by University Committee on the Use and Care of Animals at the University of Michigan (ULAM). An estrogen pellet was subcutaneously implanted in each mouse with the fat pad injection of MCF7 or ZR75-1 cells. Mice were sacrificed when tumor reached 1-1.2 CM.
(§2) A xenograft model was used to simulate clinical disease in adjuvant (early treatment) and advanced (late treatment) setting. 5 mice per treatment group were used. For adjuvant setting, 50,000 cells of BT474, ZR75-1 and MCF7 were injected into fat pads and began treatment immediately after inoculation. To simulate advanced disease, 1 million cells of BT474, ZR75-1 and MCF7 were inoculated into fat pads and tumors allowed to reach a size of approximately 0.4 cm. Then, treatment described below was initiated and continued along with assessment of tumor growth for 6-week period. Animals were sacrificed right after completion of 6-week treatment and cancer stem cells were analyzed by Aldefluor assay as described previously.
(§3) NOD/SCID mice implanted with luciferase-labeled cells received 6-week of treatment in both advanced and adjuvant setting.
(§4) Fat pad tumor diameter was measured by caliper weekly. Tumor volumes were calculated using the formula: volume=width^2×length/2. Luciferase-labeled tumor growth was monitored at least every 2 weeks using in vivo imaging system (ISVS, Caliper Life Science). Mice were injected with luciferin (Caliper), anesthetized and imaged according to manufacturer's protocols. For photon flux counting, a charge-coupled device camera system (Xenogen) with a nose-cone isofluorane delivery system and heated stage for maintaining body temperature was used. Results were analyzed after 10 minutes of exposure using the Living Image software provided with the Xenogen imaging system.

[3] = test system: luminal ZR75-1 tumor xenografts; test: ZR75-1 xenograft in fat pad, early and late treatment; format: in vivo, NOD/SCID mice; conditions: for growth of established ZR75-1 tumors: late treatment, trastuzumab 4 mg/kg IP twice a week, docetaxel 10 mg/kg IP once a week
Protocol: as §1, §2, §3, §4

[4] = test system: SUM159-HER2+PTEN- xenografts; test: SUM159-HER2+PTEN- trastuzumab-resistant xenografts; conditions: for serum IL6 or IL8 levels: human specific ELISA; for percent of Aldefluor-positive cells in tumors: mouse, in vivo; for body weight: tumor-bearing mice, docetaxel 10 mg/kg once a week; for tumor growth: 8 weeks, perifosine 20 mg/kg twice a week, anti-IL6R 10 mg/kg once a week; for serum human IL6 and IL8 in control and docetaxel-treated mice higher than in treated mice: ELISA
[5] = test system: BT474-DsRed and BT474-PTEN- cells; test: CD44+/CD24- flow cytometry of BT474 cells; format: cell-based, human
Protocol: (§5) To measure ALDH activity, the Aldefluor assay was carried out according to manufacturer's guidelines (StemCell Technologies, Inc., Durham, N.C.). Indicated cells were incubated with fluorophore-conjugated CD44 or CD24 antibodies alone or in combination on ice for 30 min, washed with Hank's balanced salt solution (HBSS), and resuspended in DAPI containing HBSS buffer for flow cytometry analyses.
To determine whether induction of the CSC phenotype was dependent on IL6 production, the effect of addition of IL6 receptor antibody on induction of the CSC phenotype was assessed. […] The ability of the anti-IL6R antibody to affect the CD44^+/CD24^− population in Sum159 cells, which lack the expression of the luminal CD24 marker, was examined.

[6] = test system: Sum159 cells; test: CD44/CD24 flow cytometry of Sum159 cells; format: cell-based, human; conditions: 5 days
Protocol: as §5
However, there was approximately a 2-fold increase in IL6 secretion when cells were treated for 3 weeks or longer (SEE FIG. 14A). […] The effects of trastuzumab-mediated IL6 production on CSCs were also tested. […] In contrast, downregulation of PTEN in these cells generated a population that contained approximately 10% CD44^+/CD24^− cells (FIG. 14B). […] To determine whether induction of the CSC phenotype was dependent on IL6 production, the effect of addition of IL6 receptor antibody on induction of the CSC phenotype was assessed. […] The ability of the anti-IL6R antibody to affect the CD44^+/CD24^− population in Sum159 cells, which lack the expression of the luminal CD24 marker, was examined. […] This discrepancy may be explained by the existence of different stem cell populations in different breast cancer subtypes.

[7] = test system: parental BT474 cells; test: co-culture of parental BT474 cells with BT474-PTEN-LTT cells; format: cell-based, human
Source text: (§6) The green fluorescent protein (GFP) label in the parental (PTEN wild-type) cells allowed separation by flow cytometry of cell populations following co-culture. Co-culture of parental BT474-GFP cells with BT474-PTEN^−LTT cells increased the percentage of CD44^+/CD24^− CSCs from 0.1% to 60% in parental cells (SEE FIG. 15A). Single GFP-expressing parental BT474 cells were sorted after 3 weeks of co-culture with BT474-PTEN^−LTT and generated multiple colonies. […] To examine the direct role of IL6 in these processes, parental BT474 or SKBR cells were stimulated with recombinant IL6 or conditioned medium (CM) from BT474-PTEN^−LTT cells in the presence or absence of anti-IL6R antibody.

[8] = test system: parental BT474 or SKBR cells; test: stimulation with recombinant IL6 or conditioned medium, mesenchymal phenotype and CD44; format: cell-based, human; conditions: 5 days
Source text: as §6

[9] = test system: BT474 cells; test: tumorspheres in suspension cultures of BT474 cells; format: cell-based, human
Protocol: Single cells were plated on ultra-low attachment plates at a density of 1×10^5/ml and grown for 7 days in a mammocult medium (Stem Cell Technologies). After the treatment of primary spheres, they were dissociated into single-cell suspension and plated at a density of 5×10^3-1×10^4/ml for the subsequent passages. Secondary spheres were counted after 5-7 days in culture.

[10] = test system: BT474 cells; test: cell growth / viable cells of BT474 cells; format: cell-based, human; conditions: parental BT474 cells
[11] = test system: trastuzumab-sensitive BT474-DsRed xenografts; test: BT474-DsRed xenografts; format: in vivo, NOD/SCID mice; conditions: 7-week period, compared to saline
[12] = test system: trastuzumab-resistant BT474-PTEN- xenografts; test: BT474-PTEN- xenografts; format: in vivo, NOD/SCID mice; conditions: for secondary tumors and distant metastasis after excision of primary tumors: excised after 8 weeks of treatment, luciferase imaging
Source text: Treatments for all early settings were 8 weeks long. […] Drug doses were as described in early setting.
To determine the effects of these treatments on the development of metastasis, we excised primary BT474-PTEN^− tumors after 8 weeks of treatment and assessed subsequent development of local and distant metastasis by luciferase imaging (FIG. 7D).

[13] = test system: breast CSCs (tumor-initiating cells); test: reimplantation assay of residual tumor cells into secondary mice; format: in vivo; conditions: residual tumors from treated mice
Source text: One of the hallmarks of CSC model is their ability to initiate tumors in secondary reimplantation assays (Clarke et al., 2006; herein incorporated by reference in its entirety).

[14] = test system: HER2 expression in MCF7 cells; test: co-culture of MCF7 cells with human osteocytes, HER2 expression by flow cytometry; format: cell-based; conditions: MCF7 co-cultured with human osteocytes
Protocol: Preparation of cells for FACS analysis and sorting was described as followings. Cells were collected and rinsed twice in 1×PBS containing 2% FBS and a fraction of cells were added with human immunoglobulin to identify non-specific binding and use these cells as a gate for negative control. Cells were incubated with appropriate antibody dilution as manufacture's guidelines. The antibody included anti-HER2/neu APC (Biosciences, Cat#340554), anti-HER2/neu PE (Biosciences, Cat#340552).
To simulate the bone microenvironment in vitro, co-culture experiments were performed utilizing MCF7, DsRed labeled with osteocytes generated from human bone mesenchymal stem cells. […] A number of biological effects of the bone microenvironment and mediated by RANK-ligand.

Compound: Cc1ccc(S(=O)(=O)/C=C/C#N)cc1 [Bay11-7082]
- secretion of all three cytokines (IL6, IL8, CCL5) [1]: completely inhibited
- secretion of all three cytokines (IL6, IL8, CCL5) ([1]; listed as Bay11): almost completely blocked; also recorded: completely suppressed

Compound: CC(=O)O[C@@]12CO[C@@H]1C[C@H](O)[C@@]1(C)C(=O)[C@H](O)C3=C(C)[C@@H](OC(=O)[C@H](O)[C@@H](NC(=O)OC(C)(C)C)c4ccccc4)C[C@@](O)([C@@H](OC(=O)c4ccccc4)[C@H]21)C3(C)C [docetaxel]
- tumor growth / formation, BT474 ([2]; early (adjuvant) setting): suppressed tumor formation
- growth of established BT474 tumors [2]: reduced tumor growth
- growth of established BT474 tumors ([2]; listed as Docetaxel): highest efficacy to shrink tumors
- tumor growth / formation, ZR75-1 ([3]; early (adjuvant) setting): suppressed tumor formation
- growth of established ZR75-1 tumors [3]: reduced tumor growth
- growth of established ZR75-1 tumors ([3]; listed as Docetaxel): highest efficacy to shrink tumors
- serum IL6 or IL8 levels [4]: no significant effect
- percent of Aldefluor-positive cells in tumors [4]: no significant effect; also recorded: no reduction
- body weight [4]: lost body weight

Compound: CCCCCCCCCCCCCCCCCCOP(=O)([O-])OC1CC[N+](C)(C)CC1 [perifosine]
- secretion of all three cytokines (IL6, IL8, CCL5) [1]: only partially inhibited
- reduced the levels of these cytokines [1]: 50%
- tumor growth [4]: significantly inhibited tumor growth
- serum human IL6 and IL8 in control and docetaxel-treated mice higher than in treated mice [4]: 2 fold
- serum IL6 or IL8 levels [4]: significantly reduced
- percent of Aldefluor-positive cells in tumors [4]: significantly reduced; also recorded: substantial reduction
- body weight [4]: less body weight loss

Compound: Stat3 Inhibitor VII
- secretion of all three cytokines (IL6, IL8, CCL5) [1]: only partially inhibited
- reduced the levels of these cytokines [1]: 50%

Compound: Tocilizumab [anti-IL6R antibody]
- IL6-increased production of all three cytokines ([1]; HER2+PTEN- cells with recombinant IL6): completely inhibited
- reduced the levels of these cytokines [1]: more than 50%
- CD44+/CD24- CSC population [5]: reduced
- increase in CD44+/CD24- population induced by trastuzumab [5]: completely blocked
- cell growth [6]: substantial growth arrest
- generation of CD24+ cells [6]: 11%
- induction of the CD44+/CD24- phenotype ([7]; antibody added at the time of co-culture): inhibited
- CD44+/CD24- phenotype in parental cells ([7]; late treatment): no effect; also recorded: resistant
- IL6- or CM-induced mesenchymal phenotype and CD44 expression [8]: able to reverse
- number of tumorspheres induced by CM [9]: reduced
- CM- or IL6-conferred resistance to trastuzumab [10]: blocked; also recorded: reversed
- growth of BT474-DsRed xenografts [11]: little effect
- growth of BT474-PTEN- xenografts ([12]; early treatment): completely blocked tumor growth
- tumor growth as assessed by tumor weight at sacrifice ([12]; established tumors (late treatment)): completely blocked tumor growth
- secondary tumors and distant metastasis after excision of primary tumors [12]: no distant metastasis detected
- secondary tumors and distant metastasis after excision of primary tumors ([12]; listed as Anti-IL6R antibody): completely inhibited
- serum IL6 levels ([12]; human specific ELISA): lowest levels
- frequency of CSCs reduced [13]: more than 50%
- frequency of breast CSCs [13]: significantly lower
- tumor growth [4]: significantly inhibited tumor growth
- serum human IL6 and IL8 in control and docetaxel-treated mice higher than in treated mice [4]: 2 fold
- serum IL6 or IL8 levels [4]: significantly reduced
- percent of Aldefluor-positive cells in tumors [4]: significantly reduced; also recorded: substantial reduction

Compound: denosumab
- HER2 induction by osteocyte co-cultures [14]: partially blocked
- HER2 induction by osteocyte co-cultures ([14]; listed as Denosumab): able to suppress
